Results taken from paper PMC6431521, “Synthesis and Evaluation of ^18F-Labeled Peptide for Gonadotropin-Releasing Hormone Receptor Imaging” (Contrast Media & Molecular Imaging, 2019).

Target: T1, human GnRH membrane preparations (GnRH receptor) (Homo sapiens, UniProt P30968)
T1 construct: purchased Millipore ChemiScreen HTS027M
T1 sequence (P30968 1-328): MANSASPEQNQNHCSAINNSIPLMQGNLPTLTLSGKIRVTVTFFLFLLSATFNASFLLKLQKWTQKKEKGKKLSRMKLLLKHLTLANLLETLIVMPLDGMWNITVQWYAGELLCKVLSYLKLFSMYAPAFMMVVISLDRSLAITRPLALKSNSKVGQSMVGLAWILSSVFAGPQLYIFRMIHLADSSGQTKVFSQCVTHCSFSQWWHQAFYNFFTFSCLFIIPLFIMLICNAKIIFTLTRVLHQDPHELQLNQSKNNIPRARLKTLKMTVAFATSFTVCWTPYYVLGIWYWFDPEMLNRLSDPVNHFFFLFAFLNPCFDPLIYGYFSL
Experiment: In vitro competitive GnRH receptor binding assay
Details: for IC50: competitive binding, Millipore ChemiScreen human GnRH membrane preparations, radioligand [131I](His5, D-Tyr6)GnRH, 10^-11 to 10^-5 M peptide, room temperature 1.5 h, pH 7.4, gamma counter, n=3, read-out: GnRH receptor binding affinity IC50
Description: GnRH membrane preparations were obtained from Millipore ChemiScreen (HTS027M). The GnRH receptor binding affinities (IC50 values) of FP-D-Lys^6-GnRH, D-Lys^6-GnRH, and NOTA-P-D-Lys^6-GnRH were determined by in vitro competitive binding assay according to the manufacturer's protocol. In brief, 5 μL of Millipore ChemiScreen human GnRH membrane preparations was incubated at room temperature for 1.5 h with approximately 20,000 counts per minute (cpm) of [^131I](His^5, D-Tyr^6)GnRH in the presence of 10^−11 to 10^−5 M of each peptide in 95 μL of binding buffer (50 mM HEPES, 5 mM MgCl2, 1 mM CaCl2, 0.2% BSA, buffer to pH 7.4 using 1 M NaOH). After the incubation, 600 μL of ice-cold washing buffer (50 mM HEPES, 500 mM NaCl, 0.1% BSA, buffer to pH 7.4 using 1 M NaOH) was added to each mixture. Each resulting mixture was filtered through a GF/C filter (Whatman, Clifton, NJ) presoaked in 0.33% polyethylenimine. Each filter was rinsed with 1 mL of ice-cold wash buffer six times. The activities on the filters were measured in a gamma counter (γ-counter).
The GnRH receptor affinities for FP-D-Lys^6-GnRH, D-Lys^6-GnRH, and NOTA-P-D-Lys^6-GnRH were determined using human GnRH membrane preparations and [^131I](His^5, D-Tyr^6)GnRH as the radioligand.

[1] = ratio of IC50 values, GnRH receptor binding

IC50 | Potency higher than the reference D-Lys6-GnRH [1] | Decrease of GnRH receptor binding affinity versus D-Lys6-GnRH [1] | SMILES
2 nM | approximately 8 fold | – | CC(C)C[C@H](NC(=O)[C@@H](CCCCNC(=O)C(C)F)NC(=O)[C@H](Cc1ccc(O)cc1)NC(=O)[C@H](CO)NC(=O)[C@H](Cc1c[nH]c2ccccc12)NC(=O)[C@H](Cc1c[nH]cn1)NC(=O)[C@@H]1CCC(=O)N1)C(=O)N[C@@H](CCCNC(=N)N)C(=O)N1CCC[C@H]1C(=O)NCC(N)=O (stereo partly drawn) [FP-D-Lys^6-GnRH]
– | – | approximately 4 fold | CC(C)C[C@H](NC(=O)[C@@H](CCCCNC(=O)CCOCCOCCOCCNC(=O)CN1CCN(CC(=O)O)CCN(CC(=O)O)CC1)NC(=O)[C@H](Cc1ccc(O)cc1)NC(=O)[C@H](CO)NC(=O)[C@H](Cc1c[nH]c2ccccc12)NC(=O)[C@H](Cc1c[nH]cn1)NC(=O)[C@@H]1CCC(=O)N1)C(=O)N[C@@H](CCCNC(=N)N)C(=O)N1CCC[C@H]1C(=O)NCC(N)=O [NOTA-P-D-Lys^6-GnRH]
15.8 nM | – | – | CC(C)C[C@H](NC(=O)[C@@H](CCCCN)NC(=O)[C@H](Cc1ccc(O)cc1)NC(=O)[C@H](CO)NC(=O)[C@H](Cc1c[nH]c2ccccc12)NC(=O)[C@H](Cc1cnc[nH]1)NC(=O)[C@@H]1CCC(=O)N1)C(=O)N[C@@H](CCCNC(=N)N)C(=O)N1CCC[C@H]1C(=O)NCC(N)=O [D-Lys^6-GnRH, reference compound]
